Assay results published in the supplement of paper PMC10307832.

Columns and labels:
[1] = compound: CC(C)CCN1c2nc(Nc3cc(F)c(O)c(F)c3)ncc2N(C)C(=O)C1C [BI-D1870] + CC(=O)Nc1cccc(-n2c(=O)n(C3CC3)c(=O)c3c(Nc4ccc(I)cc4F)n(C)c(=O)c(C)c32)c1 [Trametinib] (partner 0.02 µM); assay: relative viability (nuclei count vs DMSO), 5 days (fraction); higher = more cells survive
Method in brief: (§1)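 Cells from lung cancer lines were seeded into 1536-well plates and, one day later, dosed by pin tool. Treatments were either a single drug or a fixed dose of an anchor drug with five library-drug doses (not always all listed) in √10 steps. After 5 days, nuclei were stained in a one-step fixation (final 0.05% Triton X-100, 1% formaldehyde, 1 ug/ml Hoechst) and counted on 4× images, and relative viability is the treated-to-vehicle nuclei ratio, as the median of duplicate plates.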

[2] = compound: O=c1ncccn1[C@@H]1O[C@H](CO)[C@@H](O)[C@H]1O [Zebularine] + Cc1nc(Nc2ncc(C(=O)Nc3c(C)cccc3Cl)s2)cc(N2CCN(CCO)CC2)n1 [Dasatinib] (partner 0.075 µM); assay: as above
Method in brief: as §1

Row | Cell Line | relative viability ([1]; first compound 0.04 µM) | relative viability ([1]; first compound 0.1265 µM) | relative viability ([1]; first compound 0.4 µM) | relative viability ([1]; first compound 1.265 µM) | relative viability ([1]; first compound 4 µM) | relative viability ([2]; first compound 1 µM) | relative viability ([2]; first compound 3.162 µM) | relative viability ([2]; first compound 10 µM) | relative viability ([2]; first compound 31.62 µM) | relative viability ([2]; first compound 100 µM)
1 | NCI-H1993 | 0.404 | 0.505 | 0.621 | 0.567 | 0.42 | 0.658 | 0.609 | 0.48 | 0.498 | 0.496
2 | RERF-LC-KJ | 0.901 | 0.752 | 0.863 | 0.837 | 0.693 | 0.92 | 0.81 | 0.759 | 0.999 | 0.956
3 | NCI-H23 | 0.39 | 0.342 | 0.385 | 0.329 | 0.295 | 0.83 | 0.876 | 0.497 | 0.774 | 0.791
4 | HCC-366 | 0.347 | 0.311 | 0.328 | 0.39 | 0.221 | 0.617 | 0.667 | 0.526 | 0.721 | 0.218
5 | EMC-BAC-2 | 1.05 | 0.852 | 0.89 | 1.13 | 1.09 | 0.349 | 0.367 | 0.268 | 0.318 | 0.311
6 | NCI-H2405 | 0.683 | 0.595 | 0.586 | 0.67 | 0.601 | 0.229 | 0.213 | 0.207 | 0.188 | 0.211
7 | NCI-H358 | 0.147 | 0.117 | 0.136 | 0.153 | 0.119 | 0.169 | 0.134 | 0.194 | 0.174 | 0.105
8 | NCI-H1944 | 0.443 | 0.362 | 0.382 | 0.423 | 0.393 | 0.202 | 0.199 | 0.221 | 0.215 | 0.193
9 | NCI-H1648 | 0.445 | 0.54 |  | 0.552 | 0.49 |  |  |  |  | 
10 | EPLC-272H | 0.292 | 0.258 | 0.302 | 0.298 | 0.306 | 0.405 | 0.356 | 0.255 | 0.34 | 0.28
11 | NCI-H1915 | 0.332 | 0.27 | 0.27 | 0.254 | 0.249 | 0.362 | 0.328 |  | 0.374 | 0.287
12 | NCI-H596 | 0.95 | 0.773 | 0.846 | 0.804 | 0.762 | 0.606 | 0.648 | 0.461 | 0.694 | 0.565
13 | NCI-H322M | 0.437 | 0.537 | 0.524 | 0.508 | 0.495 | 0.257 | 0.263 | 0.237 | 0.278 | 0.246
14 | NCI-H2228 | 0.54 | 0.367 | 0.362 | 0.56 | 0.223 | 0.606 | 0.518 | 0.322 | 0.448 | 0.222
15 | NCI-H2342 | 0.794 | 0.805 | 0.881 | 1 | 1.01 | 0.364 | 0.337 | 0.268 | 0.334 | 0.341
16 | NCI-H647 | 0.575 | 0.45 | 0.533 | 0.462 | 0.335 | 0.202 | 0.208 | 0.129 | 0.101 | 0.109
17 | SK-MES-1 | 0.541 | 0.532 | 0.518 | 0.471 | 0.307 | 0.386 | 0.423 | 0.356 | 0.299 | 0.166
